Experiments:
[1] = system: Leaf; test: Drug level in Fragaria x ananassa (strawberry) leaf assessed as deposition in leaf at 5 mg/l; format: ADME
[2] = system: Leaf; test: Drug level in Fragaria x ananassa (strawberry) leaf assessed as deposition in leaf at 1 mg/l; format: ADME
[3] = Toxicity against Aphidius colemani in cucumber leaf assessed as mortality at 20 mg/l treated as spraying after 48 hr relative to control; format: organism-based; conditions: in vivo
[4] = Toxicity against Aphidius colemani in kidney bean leaf assessed as mortality at 8.3 mg/l treated as spraying after 24 hr relative to control; format: organism-based; conditions: in vivo
[5] = Toxicity against Aphidius colemani in kidney bean leaf assessed as mortality at 8.3 mg/l treated as spraying after 48 hr relative to control; format: organism-based; conditions: in vivo
[6] = system: Leaf; test: Drug level in Phaseolus vulgaris (kidney bean) leaf assessed as deposition in leaf at 83.3 mg/l; format: ADME
[7] = system: Leaf; test: Drug level in Phaseolus vulgaris (kidney bean) leaf assessed as deposition in leaf at 1 mg/l; format: ADME
[8] = Toxicity against Aphidius colemani in strawberry leaf assessed as mortality at 1 mg/l treated as spraying after 48 hr relative to control; format: organism-based; conditions: in vivo, other: spraying
[9] = Drug level in Fragaria x ananassa (strawberry) leaf at 50 mg/l leaves after 20 days; format: ADME; conditions: read-out: Drug uptake
[10] = system: Leaf; test: Drug level in Fragaria x ananassa (strawberry) leaf assessed as deposition in leaf at 100 mg/l; format: ADME
[11] = Drug level in Fragaria x ananassa (strawberry) leaf at 50 mg/l leaves after 30 days; format: ADME; conditions: read-out: Drug uptake
[12] = Toxicity against Aphidius colemani in kidney bean leaf assessed as mortality at 5 mg/l treated as spraying after 24 hr relative to control; format: organism-based; conditions: in vivo
[13] = Toxicity against Aphidius colemani in cucumber leaf assessed as mortality at 5 mg/l treated as spraying after 24 hr relative to control; format: organism-based; conditions: in vivo, other: spraying
[14] = system: Leaf; test: Drug level in Phaseolus vulgaris (kidney bean) leaf assessed as deposition in leaf at 5 mg/l; format: ADME
[15] = Toxicity against Aphidius colemani in strawberry leaf assessed as mortality at 100 mg/l treated as spraying after 24 hr relative to control; format: organism-based; conditions: in vivo
[16] = Residual toxicity against Aphidius colemani in strawberry leaf assessed as mortality at 50 mg/l leaves collected after 10 days of application measured after 48 hr relative to control; format: organism-based; conditions: in vivo
[17] = Toxicity against Aphidius colemani in kidney bean leaf assessed as mortality at 100 mg/l treated as spraying after 24 hr relative to control; format: organism-based; conditions: in vivo
[18] = Toxicity against Aphidius colemani in cucumber leaf assessed as mortality at 100 mg/l treated as spraying after 48 hr relative to control; format: organism-based; conditions: in vivo
[19] = Residual toxicity against Aphidius colemani in strawberry leaf assessed as mortality at 50 mg/l leaves collected after 40 days of application measured after 24 hr relative to control; format: organism-based; conditions: in vivo
[20] = Residual toxicity against Aphidius colemani in strawberry leaf assessed as mortality at 50 mg/l leaves collected after 10 days of application measured after 24 hr relative to control; format: organism-based; conditions: in vivo
[21] = Residual toxicity against Aphidius colemani in strawberry leaf assessed as mortality at 50 mg/l leaves collected after 5 days of application measured after 48 hr relative to control; format: organism-based; conditions: in vivo
[22] = Toxicity against Aphidius colemani in cucumber leaf assessed as mortality at 10 mg/l treated as spraying after 48 hr relative to control; format: organism-based; conditions: in vivo, other: spraying
[23] = Drug level in Fragaria x ananassa (strawberry) leaf at 50 mg/l leaves after 40 days; format: ADME; conditions: read-out: Drug uptake
[24] = system: Leaf; test: Drug level in Phaseolus vulgaris (kidney bean) leaf assessed as deposition in leaf at 8.3 mg/l; format: ADME
[25] = Toxicity against Aphidius colemani in strawberry leaf assessed as mortality at 5 mg/l treated as spraying after 24 hr relative to control; format: organism-based; conditions: in vivo, other: spraying
[26] = Toxicity against Aphidius colemani in kidney bean leaf assessed as mortality at 1 mg/l treated as spraying after 24 hr relative to control; format: organism-based; conditions: in vivo
[27] = system: Leaf; test: Drug level in Cucumis sativus (cucumber) leaf assessed as deposition in leaf at 10 mg/l; format: ADME
[28] = Residual toxicity against Aphidius colemani in strawberry leaf assessed as mortality at 50 mg/l leaves collected after 20 days of application measured after 48 hr relative to control; format: organism-based; conditions: in vivo
[29] = system: Aphidius colemani; test: Drug uptake in Aphidius colemani at 100 mg/l treated as spraying; format: ADME, organism-based; conditions: in vivo, topical_or_ocular
[30] = Toxicity against Aphidius colemani assessed as mortality at 100 mg/l, po after 24 hr relative to control; format: organism-based; conditions: in vivo
[31] = Toxicity against Aphidius colemani in kidney bean leaf assessed as mortality at 0.8 mg/l treated as spraying after 24 hr relative to control; format: organism-based; conditions: in vivo
[32] = system: Leaf; test: Drug level in Cucumis sativus (cucumber) leaf assessed as deposition in leaf at 5 mg/l; format: ADME
[33] = system: Leaf; test: Drug level in Phaseolus vulgaris (kidney bean) leaf assessed as deposition in leaf at 100 mg/l; format: ADME
[34] = Toxicity against Aphidius colemani in kidney bean leaf assessed as mortality at 83.3 mg/l treated as spraying after 24 hr relative to control; format: organism-based; conditions: in vivo, other: spraying
[35] = Toxicity against Aphidius colemani in kidney bean leaf assessed as mortality at 83.3 mg/l treated as spraying after 48 hr relative to control; format: organism-based; conditions: in vivo, other: spraying
[36] = Residual toxicity against Aphidius colemani in strawberry leaf assessed as mortality at 50 mg/l leaves collected after 20 days of application measured after 24 hr relative to control; format: organism-based; conditions: in vivo
[37] = Toxicity against Aphidius colemani in cucumber leaf assessed as mortality at 5 mg/l treated as spraying after 48 hr relative to control; format: organism-based; conditions: in vivo
[38] = Residual toxicity against Aphidius colemani in strawberry leaf assessed as mortality at 50 mg/l leaves collected after 30 days of application measured after 48 hr relative to control; format: organism-based; conditions: in vivo
[39] = Toxicity against Aphidius colemani in strawberry leaf assessed as mortality at 1 mg/l treated as spraying after 24 hr relative to control; format: organism-based; conditions: in vivo, other: spraying
[40] = Residual toxicity against Aphidius colemani in strawberry leaf assessed as mortality at 50 mg/l leaves collected after 30 days of application measured after 24 hr relative to control; format: organism-based; conditions: in vivo
[41] = Toxicity against Aphidius colemani in cucumber leaf assessed as mortality at 100 mg/l treated as spraying after 24 hr relative to control; format: organism-based; conditions: in vivo, other: spraying
[42] = Toxicity against Aphidius colemani in cucumber leaf assessed as mortality at 10 mg/l treated as spraying after 24 hr relative to control; format: organism-based; conditions: in vivo, other: spraying
[43] = system: Leaf; test: Drug level in Cucumis sativus (cucumber) leaf assessed as deposition in leaf at 20 mg/l; format: ADME
[44] = system: Leaf; test: Drug level in Phaseolus vulgaris (kidney bean) leaf assessed as deposition in leaf at 0.8 mg/l; format: ADME
[45] = Toxicity against Aphidius colemani in kidney bean leaf assessed as mortality at 0.8 mg/l treated as spraying after 48 hr relative to control; format: organism-based; conditions: in vivo, other: spraying
[46] = Drug level in Fragaria x ananassa (strawberry) leaf at 50 mg/l leaves after 5 days; format: ADME; conditions: read-out: Drug uptake
[47] = Toxicity against Aphidius colemani in kidney bean leaf assessed as mortality at 1 mg/l treated as spraying after 48 hr relative to control; format: organism-based; conditions: in vivo
[48] = Toxicity against Aphidius colemani assessed as mortality at 100 mg/l, po after 24 hr; format: organism-based; conditions: in vivo
[49] = Toxicity against Aphidius colemani in cucumber leaf assessed as mortality at 20 mg/l treated as spraying after 24 hr relative to control; format: organism-based; conditions: in vivo, other: spraying
[50] = Residual toxicity against Aphidius colemani in strawberry leaf assessed as mortality at 50 mg/l leaves collected after 5 days of application measured after 24 hr relative to control; format: organism-based; conditions: in vivo
[51] = Toxicity against Aphidius colemani in kidney bean leaf assessed as mortality at 100 mg/l treated as spraying after 48 hr relative to control; format: organism-based; conditions: in vivo, other: spraying
[52] = Contact toxicity against Aphidius colemani assessed as mortality at 100 mg/l after 24 hr; format: organism-based; conditions: in vivo, other: contact
[53] = Residual toxicity against Aphidius colemani in strawberry leaf assessed as mortality at 50 mg/l leaves collected after 40 days of application measured after 48 hr relative to control; format: organism-based; conditions: in vivo
[54] = Contact toxicity against Aphidius colemani assessed as mortality at 100 mg/l after 24 hr relative to control; format: organism-based; conditions: in vivo, other: contact
[55] = Toxicity against Aphidius colemani in strawberry leaf assessed as mortality at 100 mg/l treated as spraying after 48 hr relative to control; format: organism-based; conditions: in vivo
[56] = system: Leaf; test: Drug level in Cucumis sativus (cucumber) leaf assessed as deposition in leaf at 100 mg/l; format: ADME
[57] = Toxicity against Aphidius colemani in kidney bean leaf assessed as mortality at 5 mg/l treated as spraying after 48 hr relative to control; format: organism-based; conditions: in vivo
[58] = Drug level in Fragaria x ananassa (strawberry) leaf at 50 mg/l leaves after 10 days; format: ADME; conditions: read-out: Drug uptake
[59] = Toxicity against Aphidius colemani in strawberry leaf assessed as mortality at 5 mg/l treated as spraying after 48 hr relative to control; format: organism-based; conditions: in vivo
[60] = system: Aphidius colemani; test: Drug uptake in Aphidius colemani at 400 mg/l treated as dipping; format: ADME, organism-based; conditions: in vivo, topical_or_ocular
[61] = Toxicity against Aphidius colemani assessed as mortality at 400 mg/l, po after 24 hr; format: organism-based; conditions: in vivo
[62] = system: Aphidius colemani; test: Drug uptake in Aphidius colemani at 400 mg/l treated as spraying; format: ADME, organism-based; conditions: in vivo, topical_or_ocular
[63] = Toxicity against Aphidius colemani assessed as mortality at 400 mg/l, po after 24 hr relative to control; format: organism-based; conditions: in vivo
[64] = Contact toxicity against Aphidius colemani assessed as mortality at 400 mg/l after 24 hr; format: organism-based; conditions: in vivo, other: contact
[65] = Contact toxicity against Aphidius colemani assessed as mortality at 400 mg/l after 24 hr relative to control; format: organism-based; conditions: in vivo, other: contact

SMILES: CC[C@H]1CCC[C@H](O[C@H]2CC[C@H](N(C)C)[C@@H](C)O2)[C@@H](C)C(=O)C2=C[C@@H]3[C@@H](C=C(C)[C@@H]4C[C@@H](O[C@@H]5O[C@@H](C)[C@H](OC)[C@@H](OC)[C@H]5OC)C[C@@H]34)[C@@H]2CC(=O)O1.CC[C@H]1CCC[C@H](O[C@H]2CC[C@H](N(C)C)[C@@H](C)O2)[C@@H](C)C(=O)C2=C[C@@H]3[C@@H](C=C[C@@H]4C[C@@H](O[C@@H]5O[C@@H](C)[C@H](OC)[C@@H](OC)[C@H]5OC)C[C@@H]34)[C@@H]2CC(=O)O1
- Drug uptake [1]: 0.022%
- Drug uptake [2]: 0.003%
- mortality at 48 h [3]: 86.7%
- mortality at 24 h [4]: 90%
- mortality at 48 h [5]: 98.2%
- Drug uptake [6]: 2.108%
- Drug uptake [7]: 0.004%
- mortality at 48 h [8]: 0%
- concentration at 480 h [9]: 23000 ng/g
- Drug uptake [10]: 1.145%
- concentration at 720 h [11]: 11400 ng/g
- mortality at 24 h [12]: 4%
- mortality at 24 h [13]: 3.3%
- Drug uptake [14]: 0.025%
- mortality at 24 h [15]: 95.8%
- mortality at 48 h [16]: 93.6%
- mortality at 24 h [17]: 90%
- mortality at 48 h [18]: 100%
- mortality at 24 h [19]: 4%
- mortality at 24 h [20]: 62%
- mortality at 48 h [21]: 95.1%
- mortality at 48 h [22]: 10%
- concentration at 960 h [23]: 9200 ng/g
- Drug uptake [24]: 0.219%
- mortality at 24 h [25]: 3.3%
- mortality at 24 h [26]: 0%
- Drug uptake [27]: 0.044%
- mortality at 48 h [28]: 55.9%
- Drug uptake [29]: 3.63 ng
- mortality at 24 h [30]: 91.3%
- mortality at 24 h [31]: 0%
- Drug uptake [32]: 0.022%
- Drug uptake [33]: 2.37%
- mortality at 24 h [34]: 96.9%
- mortality at 48 h [35]: 100%
- mortality at 24 h [36]: 27.7%
- mortality at 48 h [37]: 0%
- mortality at 48 h [38]: 0%
- mortality at 24 h [39]: 0%
- mortality at 24 h [40]: 4.3%
- mortality at 24 h [41]: 100%
- mortality at 24 h [42]: 3.3%
- Drug uptake [43]: 0.177%
- Drug uptake [44]: 0.023%
- mortality at 48 h [45]: 8.9%
- concentration at 120 h [46]: 38800 ng/g
- mortality at 48 h [47]: 21.4%
- mortality at 24 h [48]: 93.3%
- mortality at 24 h [49]: 48.3%
- mortality at 24 h [50]: 74.4%
- mortality at 48 h [51]: 97.8%
- mortality at 24 h [52]: 100%
- mortality at 48 h [53]: 0%
- mortality at 24 h [54]: 100%
- mortality at 48 h [55]: 100%
- Drug uptake [56]: 0.93%
- mortality at 48 h [57]: 0%
- concentration at 240 h [58]: 28800 ng/g
- mortality at 48 h [59]: 17.2%

SMILES: N#Cc1c(Cl)c(Cl)c(Cl)c(C#N)c1Cl [CHLOROTHALONIL]
- Drug uptake [60]: 5.5 ng
- mortality at 24 h [61]: 0%
- Drug uptake [62]: 25.1 ng
- mortality at 24 h [63]: 0%
- mortality at 24 h [64]: 30%
- mortality at 24 h [65]: 8.7%

— ChEMBL document CHEMBL3044647, “Tests for Evaluating the Side Effects of Chlorothalonil (TPN) and Spinosad on the Parasitic Wasp (Aphidius colemani)” (J Pestic Sci, 2005)
